# Test results taken from patent publication US20250120999A1 (priority 2022, published 2025).
# “And” between values parts separate entries of the source, which are not always exact repeats. Equal entries are not always repeated. Marks after values point to notes of the source that are not given here.
# Experiments:
# MPXV A29 [1] = format: binding, monkeypox virus (MPXV)
# MPXV A35 protein [2] = format: binding, monkeypox virus (MPXV)
# MPXV A29 protein = format: binding, monkeypox virus (MPXV)
# SARS-CoV-2 wild-type = conditions: cited from earlier work
# [3] = test system: SARS-CoV-2 Delta (B.1.617.2); conditions: cited from earlier work
# MPXV A35 protein [4] = format: binding, monkeypox virus (MPXV); remark: listed apart in the source
# MPXV A29 [5] = format: binding, monkeypox virus (MPXV); remark: listed apart in the source
# MPXV L1R = format: binding, monkeypox virus (MPXV)
substance,measurement,setting,value
6-O-desulfated heparin [6-desulfated heparin],inhibition of MPXV A29 binding to heparin surface (in words),MPXV A29 [1],weaker inhibition
"[→3)-α-Fuc2,4S-(1→3)-αFuc2S-(1→3)-α-Fuc2S-(1→3)-α-Fuc4S-(1→]n [LvSF]",Normalized A35 protein binding (%),MPXV A35 protein [2],16.9* %
same,ability to inhibit A35-surface-immobilized heparin interaction (in words),MPXV A35 protein [2],showed the ability to inhibit
same,inhibition of MPXV A35 binding to surface-immobilized heparin,MPXV A35 protein [2],83.1%
same,Normalized A29 protein binding (%),MPXV A29 protein,23.6* %
same,ability to inhibit A29-surface-immobilized heparin interaction (in words),MPXV A29 protein,showed the ability to inhibit
same,inhibition of MPXV A29 binding to surface-immobilized heparin,MPXV A29 protein,76.4%
pentosan polysulfate [PPS],inhibition of MPXV A29 binding to heparin surface (in words),MPXV A29 [1],strongest inhibition
same,inhibition of MPXV A29 binding to surface-immobilized heparin,MPXV A29 [1],62%
"[→3)-β-GalNAc4,6S-(1→4)β-GlcA-[(3→1)Y]-(1→]n, where Y=α-Fuc2,4S (96%) or α-Fuc4S (4%) [IbFucCS]",inhibitory activity against SARS-CoV-2 wild-type (in words),SARS-CoV-2 wild-type,showed inhibitory activity
same,inhibitory activity against SARS-CoV-2 Delta (in words),[3],showed inhibitory activity
same,Normalized A35 protein binding (%),MPXV A35 protein [2],20.1* %
same,ability to inhibit A35-surface-immobilized heparin interaction (in words),MPXV A35 protein [2],showed the ability to inhibit
same,inhibition of MPXV A35 binding to surface-immobilized heparin,MPXV A35 protein [2],79.9% and 77%
same,Normalized A29 protein binding (%),MPXV A29 protein,7.6* %
same,ability to inhibit A29-surface-immobilized heparin interaction (in words),MPXV A29 protein,showed the ability to inhibit
same,inhibition of MPXV A29 binding to surface-immobilized heparin,MPXV A29 protein,91.5% and 86.1%
chondroitin sulfate [CS],binding of GAG chip to MPXV A35 protein (in words),MPXV A35 protein [4],neither CS nor DS showed binding
N-desulfated heparin,inhibition of MPXV A29 binding to heparin surface (in words),MPXV A29 [1],weaker inhibition
"[→3)-α-Fuc2,4S-(1→3)-α-Fuc2S-(1→3)-α-Fuc2S-(1→3)-α-Fuc-(1→]n [IbSF]",inhibitory activity against SARS-CoV-2 wild-type (in words),SARS-CoV-2 wild-type,showed inhibitory activity
same,inhibitory activity against SARS-CoV-2 Delta (in words),[3],showed inhibitory activity
same,Normalized A35 protein binding (%),MPXV A35 protein [2],24.3* %
same,ability to inhibit A35-surface-immobilized heparin interaction (in words),MPXV A35 protein [2],showed the ability to inhibit
same,inhibition of MPXV A35 binding to surface-immobilized heparin,MPXV A35 protein [2],75.8% and 77.4%
same,Normalized A29 protein binding (%),MPXV A29 protein,5.0** %
same,ability to inhibit A29-surface-immobilized heparin interaction (in words),MPXV A29 protein,showed the ability to inhibit
same,inhibition of MPXV A29 binding to surface-immobilized heparin,MPXV A29 protein,95% and 92.4%
"[→3)-β-GalNAc4,6S-(1→4)-β-GlcA-[(3→1)Y]-(1→]n, where Y=αFuc2,4S (45%), α-Fuc3,4S (35%), or α-Fuc4S (20%) [HfFucCS]",Normalized A35 protein binding (%),MPXV A35 protein [2],23.0* %
same,ability to inhibit A35-surface-immobilized heparin interaction (in words),MPXV A35 protein [2],showed the ability to inhibit
same,Normalized A29 protein binding (%),MPXV A29 protein,13.9* %
same,ability to inhibit A29-surface-immobilized heparin interaction (in words),MPXV A29 protein,showed the ability to inhibit
chondroitin-4-sulfate [CSA],ka,MPXV A29 [5],3730 M⁻¹ s⁻¹
same,kd,MPXV A29 [5],3.2 × 10^−3 (±5.4 × 10^−5) s^−1
"[→3)-α-GalNAcX(1→4)-β-GlcA-[(3→1)Y]-(1→]n, where X=4S (80%), 6S (10%), or non-sulfated (10%), and Y=−Fuc2,4S (40%), αFuc2,4S-(1→4)-α-Fuc (30%), or α-Fuc4S (30%) [PpFucCS]",Normalized A35 protein binding (%),MPXV A35 protein [2],19.0* %
same,ability to inhibit A35-surface-immobilized heparin interaction (in words),MPXV A35 protein [2],showed the ability to inhibit
same,inhibition of MPXV A35 binding to surface-immobilized heparin,MPXV A35 protein [2],89%
same,Normalized A29 protein binding (%),MPXV A29 protein,13.0* %
same,ability to inhibit A29-surface-immobilized heparin interaction (in words),MPXV A29 protein,showed the ability to inhibit
same,inhibition of MPXV A29 binding to surface-immobilized heparin,MPXV A29 protein,87%
dermatan sulfate [DS],ka,MPXV A29 [5],4487 M⁻¹ s⁻¹
same,kd,MPXV A29 [5],2.8 × 10^−3 (±2.6 × 10^−5) s^−1
same,binding of GAG chip to MPXV A35 protein (in words),MPXV A35 protein [4],neither CS nor DS showed binding
"chondroitin-4,6-sulfate [CSE]",ka,MPXV A29 [5],4858 M⁻¹ s⁻¹
same,kd,MPXV A29 [5],1.5 × 10^−3 (±4.7 × 10^−5) s^−1
"[→3)-α-Fuc2,4S-(1→3)-α-Fuc-(1→3)-α-Fuc2S-(1→3)-α-Fuc2S-(1→]n [HfSF]",Normalized A35 protein binding (%),MPXV A35 protein [2],23.9* %
same,ability to inhibit A35-surface-immobilized heparin interaction (in words),MPXV A35 protein [2],showed the ability to inhibit
same,Normalized A29 protein binding (%),MPXV A29 protein,8.5** %
same,ability to inhibit A29-surface-immobilized heparin interaction (in words),MPXV A29 protein,showed the ability to inhibit
2-O-desulfated IdoA heparin [2-desulfated heparin],inhibition of MPXV A29 binding to heparin surface (in words),MPXV A29 [1],weaker inhibition
heparin,kd,MPXV A29 [5],7.1 × 10^−3 (±5.0 × 10^−5) s^−1
same,Kd,MPXV A29 [5]; read-out: KD heparin-A29 interaction,250 nM
same,binding between MPXV L1R protein and heparin (in words),MPXV L1R,essentially no binding
same,inhibition of MPXV A29 binding to surface-immobilized heparin,MPXV A29 [1],30%
same,Normalized A35 protein binding (%),MPXV A35 protein [2],27.7* %
same,inhibition of MPXV A35 binding to surface-immobilized heparin,MPXV A35 protein [2],72%
same,ka,MPXV A35 protein [4],1.8 × 10^3 M^−1S^−1
same,Kd,MPXV A35 protein [4]; read-out: KD heparin-A35 interaction,220 nM
same,Normalized A29 protein binding (%),MPXV A29 protein,43.3* %
same,inhibition of MPXV A29 binding to surface-immobilized heparin,MPXV A29 protein,60%
mucopolysaccharide polysulfate [MPS],inhibition of MPXV A29 binding to heparin surface (in words),MPXV A29 [1],strongest inhibition
same,inhibition of MPXV A29 binding to surface-immobilized heparin,MPXV A29 [1],69%
